Our source for the IC50 values is BindingDB's records for doi:10.1021/jm950543x (University of Caen Normandy, 1996).

A short description of the assay: Binding affinity for 5-hydroxytryptamine 2C receptor.

For `CN1CCN(c2nc3sccc3n3cccc23)CC1`, the IC50 worked out at 355 nM.
